Laboratory results reported in patent US6358699B1, “Assay for asymmetrical NG, NG dimethyl-l-arginine” (Cooke Pharma, priority 1999, dated 2002).

Target: DDAH (Rattus norvegicus, UniProt O08557)
Assay: DDAH activity toward ADMA versus SDMA
Format: biochemical
Details: ADMA versus SDMA as substrate
Description: DDAH, however, has at least 1000-fold higher activity toward ADMA than SDMA, and is therefore uniquely suited for use in an enzymatic assay for unequivocal measurement of ADMA in complex mixtures. Nevertheless an enzymatic ADMA assay using DDAH is problematical because of a number of interfering components in blood. Importantly, citrulline is present in blood, so that it would provide a large background which would substantially diminish the accuracy of an assay where citrulline is the final product which is determined as a measure of the amount of ADMA in the sample. In addition, urea which is also present in blood cross-reacts in the citrulline assay. Finally, porphyrins in blood interfere with the spectrophotometric determination of citrulline. In order to have an enzymatic assay using DDAH, it is essential to prevent these various blood components from interfering with the assay.

Sequence of DDAH (O08557 whole entry): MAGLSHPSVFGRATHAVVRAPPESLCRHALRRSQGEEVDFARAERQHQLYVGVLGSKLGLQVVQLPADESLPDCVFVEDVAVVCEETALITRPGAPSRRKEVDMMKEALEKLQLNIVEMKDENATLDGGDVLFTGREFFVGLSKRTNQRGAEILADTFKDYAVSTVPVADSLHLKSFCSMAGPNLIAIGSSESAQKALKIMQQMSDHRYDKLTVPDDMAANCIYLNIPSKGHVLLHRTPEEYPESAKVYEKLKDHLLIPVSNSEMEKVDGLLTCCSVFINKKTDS

CN(C)C(N)=NCCC[C@H](N)C(=O)O [ADMA, asymmetric dimethylarginine]
DDAH activity toward ADMA relative to SDMA: at least 1000 fold
